The values below come from PubChem BioAssay (NCI).

Assay in all cases: NCI anticancer screen, dose series, 48 h
Assay [1] relates to DU-145 prostate.
Assay [2] relates to K-562 leukemia.
The test system of assay [3] is MALME-3M melanoma.
Assay [4] concerns MDA-MB-231 breast.
The subject of assay [5] is MDA-MB-435.
Assay [6] deals with NCI/ADR-RES ovarian.
Assay [7] relates to SK-OV-3 ovarian.
Assay [8] concerns SN12C renal.
Assay [9] relates to U251 CNS.
Assay [10] relates to UACC-62 melanoma.

Where “and” joins values, the source holds several entries; their conditions need not be identical. Equal values may be shown once.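 The compound was tested at five concentrations on cells cultured in 96-well plates, with a 48-hour exposure period. GI50: concentration for 50% inhibition of growth. Definition used: TGI = concentration required for complete inhibition of growth.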

For the compound `[N-]=[N+]=Nc1cc(=O)[nH]nc1-c1ccccc1`, the TGI in assay [1], in assay [2], in assay [3], in assay [4], in assay [5] and in assay [6] was over 100 µM each time. Besides, the TGI in [7], in assay [8], in [9] and in [10] was over 100 µM throughout.

For the compound `CC1=NC(=Cc2cc(Br)cc(Br)c2)C(=O)N1n1c(-c2ccccc2)nc2ccccc2c1=O`, the TGI in [1], in assay [2], in assay [3], in assay [4], in assay [5] and in [6] was over 100 µM each time. Moreover, the TGI in assay [7], in assay [8], in assay [9] and in assay [10] was over 100 µM throughout.

As to `C=C1C(=O)O[C@H]2[C@H]1CC/C(COC(=O)/C=C\C(=O)NCc1ccc(Cn3c(=O)sn(CCCC)c3=O)cc1)=C\CC[C@@]1(C)O[C@@H]21`, the GI50 is 0.854 µM in [1]; 0.316 µM in assay [2]; 1.35 µM in [3]; 0.992 µM in assay [4]; 0.513 µM in assay [5]; 1.51 µM in assay [6]. The GI50 in assay [7] was 3.33 µM; in assay [8], 0.865 µM; in assay [9], 1.43 µM; in [10], 1.2 µM. Besides, the TGI was 2.16 µM in [1]; 4.82 µM in [2]; 2.71 µM in assay [3]; 2.34 µM in assay [4]; 1.77 µM in assay [5]; 6.13 µM in [6]. In addition, the TGI in assay [7] worked out at 8.55 µM; in assay [8] it was 2.25 µM; in assay [9], 3.2 µM; in assay [10], 2.53 µM.

In the case of `CN1C(=O)/C(=C/c2c(Cl)n(C)c3ccccc23)c2ccccc21`, the GI50 was 5.05 µM in [1]; 3.15 µM in assay [2]; 7.07 µM in assay [3]; 1.99 µM in assay [4]; 1.89 µM and 1.69 µM in assay [5]; 1.92 µM in [6]. The GI50 is 4.84 µM and 1.57 µM in assay [7]; 1.82 µM in [8]; 3.7 µM and 1.73 µM in [9]; 2.8 µM in [10]. Further, the TGI was 8.59 µM in assay [4]; 4 µM and 3.13 µM in [5]; 5.17 µM in assay [6]; 2.91 µM in [7]; 9.33 µM in [8]; 3.16 µM in assay [9].

As for `N#CC1=C(N)Oc2cc(O)ccc2C1c1cccc2ccccc12` (stereo unspecified), the GI50 was 12.1 µM in [1]; 3.68 µM in [2]; 25.8 µM in assay [3]; 11.8 µM in assay [4]; 2.51 µM in assay [5]; 3.98 µM in assay [6]. Moreover, the GI50 is 18.1 µM in assay [7], 20.4 µM in assay [8], 16.6 µM in assay [9] and 12.6 µM in [10]. Moreover, the TGI in assay [1] was 29.7 µM; in assay [2], 17 µM; in [3], over 100 µM; in assay [4], 30 µM; in assay [5], 6.68 µM; in assay [6], 22.8 µM. For the same compound, the TGI is 42.9 µM in assay [7], 58.3 µM in [8], 43 µM in assay [9] and 27.3 µM in [10].

Consider `COc1ccc(O)c(C(=O)c2ccc(C(=O)N[C@H]3CCCNC[C@@H]3NC(=O)c3ccncc3)cc2)c1F`, for which the GI50 was 7.28 µM in assay [1]; 7.78 µM in [2]; 1.47 µM in [3]; over 25 µM in assay [4]; over 14.9 µM in assay [5]; over 25 µM in assay [6]. Also, the GI50 is 5.57 µM in assay [7], 3.61 µM in [8], 8.12 µM in [9] and 9.26 µM in [10]. The TGI in assay [1] was 24.5 µM; in [2], over 25 µM; in assay [3], over 25 µM; in assay [4], over 25 µM; in assay [5], over 25 µM; in assay [6] it was over 25 µM. The TGI in assay [7], in [8], in assay [9] and in assay [10] was over 25 µM in each case.

`O=C(CSC1CCc2ccccc21)N/N=C/c1ccccc1O` (stereo unspecified): the GI50 in [1] is 6.09 µM; in assay [2], 4.59 µM; in assay [3], 6.4 µM; in assay [4], 3.98 µM; in assay [5] it was 5.87 µM; in assay [6], 3.44 µM. Also, the GI50 in assay [7] is 11.5 µM; in [8], 4.67 µM; in assay [9] it was 2.92 µM; in assay [10], 2.82 µM. For the same compound, the TGI in assay [1] is over 100 µM; in assay [2] it was over 100 µM; in assay [3], 42.3 µM; in [4], 39.6 µM; in assay [5], over 100 µM; in assay [6] it was 35 µM. The TGI in assay [7] was over 100 µM; in [8], 67.4 µM; in [9], 42.5 µM; in assay [10] it was 13.6 µM.
